Source: publication PMC10205801 (2023)

Experiments:
[1] = system: A16C + U38G (RNA, aptamer) GCGCCGGUUAGGCAGCGGUGGGUGGUGUGGAGGAGUAGCUGUCCGGCGC; assay: fluorescence activation; conditions: 150 mM K+, 5 mM Mg2+; 20 mM MOPS-KOH pH 7.0; considerably less fluorescent than wild-type
[2] = system: A16U + U38A (RNA, aptamer) GCGCCGGUUAGGCAGUGGUGGGUGGUGUGGAGGAGUAACUGUCCGGCGC; assay: fluorescence activation; conditions: 150 mM K+, 5 mM Mg2+; 20 mM MOPS-KOH pH 7.0; considerably less fluorescent than wild-type
[3] = system: A31C (RNA, aptamer) GCGCCGGUUAGGCAGAGGUGGGUGGUGUGGCGGAGUAUCUGUCCGGCGC; assay: fluorescence activation; conditions: 150 mM K+, 5 mM Mg2+; 20 mM MOPS-KOH pH 7.0; fluorescence reduced at least 50% relative to wild-type
[4] = system: Beetroot (RNA, aptamer) GCGCCGGUUAGGCAGAGGUGGGUGGUGUGGAGGAGUAUCUGUCCGGCGC; assay: ITC; conditions: 150 mM K+, 5 mM Mg2+; 20 mM MOPS-KOH pH 7.0, 25 °C (methods; text gives 21 °C); two equivalent sites per dimer; per site
[5] = system: Beetroot (RNA, aptamer) GCGCCGGUUAGGCAGAGGUGGGUGGUGUGGAGGAGUAUCUGUCCGGCGC; assay: fluorescence titration; conditions: 150 mM K+, 5 mM Mg2+; 20 mM MOPS-KOH pH 7.0; RNA titrated into dye
[6] = system: A16U + U38G (Wobble Beetroot) (RNA, aptamer) GCGCCGGUUAGGCAGUGGUGGGUGGUGUGGAGGAGUAGCUGUCCGGCGC; assay: fluorescence titration; conditions: 150 mM K+, 5 mM Mg2+; 20 mM MOPS-KOH pH 7.0; RNA titrated into dye
[7] = system: F30-wild-type Beetroot / Wobble Beetroot heterodimer (RNA, aptamer) GGAGCCAUGUGUAUGUGGUCCGCGCCGGUUAGGCAGAGGUGGGUGGUGUGGAGGAGUAUCUGUCCGGCGCGGACCACAUACUCUGAUGAUCCUUCGGGAUCAUUCAUGGCUCC/GCGCCGGUUAGGCAGUGGUGGGUGGUGUGGAGGAGUAGCUGUCCGGCGC; assay: fluorescence emission spectrum; conditions: 150 mM K+, 5 mM Mg2+; 20 mM MOPS-KOH pH 7
[8] = system: F30_Beetroot (RNA, aptamer) GGAGCCAUGUGUAUGUGGUCCGCGCCGGUUAGGCAGAGGUGGGUGGUGUGGAGGAGUAUCUGUCCGGCGCGGACCACAUACUCUGAUGAUCCUUCGGGAUCAUUCAUGGCUCC; assay: fluorescence emission spectrum; conditions: 150 mM K+, 5 mM Mg2+; 20 mM MOPS-KOH pH 7
[9] = system: J1/2 deletion (RNA, aptamer) GCGCCGGGCAGAGGUGGGUGGUGUGGAGGAGUAUCUGUCCGGCGC; assay: fluorescence activation; conditions: 150 mM K+, 5 mM Mg2+; 20 mM MOPS-KOH pH 7.0; fluorescence comparable to wild-type
[10] = system: A31U (RNA, aptamer) GCGCCGGUUAGGCAGAGGUGGGUGGUGUGGUGGAGUAUCUGUCCGGCGC; assay: fluorescence activation; conditions: 150 mM K+, 5 mM Mg2+; 20 mM MOPS-KOH pH 7.0; fluorescence reduced at least 50% relative to wild-type
[11] = system: Beetroot (RNA, aptamer) GCGCCGGUUAGGCAGAGGUGGGUGGUGUGGAGGAGUAUCUGUCCGGCGC; assay: co-crystal structure, 2.1 Å; fluorescence activation; conditions: K+

COC(=O)/C=C/C1=NC(=C\c2cc(F)c(O)c(F)c2)/C(=O)N1C
binding [1]: yes
binding [2]: yes
binding [3]: yes
Kd [4]: 0.47 ± 0.18 µM
Kd [5]: 1.55 µM
Kd [6]: 4.9 ± 1.2 µM
binding [7]: yes
binding [8]: yes
binding [9]: yes
binding [10]: yes

CN1C(=O)/C(=C/c2cc(F)c(O)c(F)c2)N=C1/C=N/O
Kd [5]: 9.3 ± 1.5 µM
Kd [6]: 7.6 ± 0.8 µM
binding [7]: yes

Cc1ccc2c(c1)sc(-c1ccc(N(C)C)cc1)[n+]2C
binding [11]: yes
